The values below come from PubChem BioAssay (NCI).

Test systems include DLD-1 colon; DMS 114 small cell lung; DMS 273 small cell lung; KM20L2 colon; LXFL 529 NSCLC; M19-MEL melanoma; SNB-78 CNS; RXF-631 renal; XF 498 CNS.
Common to all, as to assay: NCI anticancer screen, dose series, 48 h

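Five compound concentrations were applied to cells in 96-well plates for 48 hours; endpoints were derived by simple linear interpolation of the resulting dose-response curve. The concentration for full growth arrest is given as TGI.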 Where only a bound is given, the exact number is not on record here.

As for `O=C(O)Cc1cccc2c1Oc1ccccc1S2`, the TGI in the assay on DLD-1 colon, in the assay with DMS 114 small cell lung, in the assay with DMS 273 small cell lung, with KM20L2 colon, in the assay on LXFL 529 NSCLC and with M19-MEL melanoma was above 100 µM in each case. Further, the TGI in the assay with SNB-78 CNS is above 100 µM.

For the molecule `COc1cc(-c2cc(=O)c3c(O)c(OC)c(OC)c(OC)c3o2)ccc1O`, the TGI was above 100 µM in the assay with DLD-1 colon; 77.8 µM with DMS 114 small cell lung; 30.5 µM in the assay with DMS 273 small cell lung; above 100 µM in the assay with KM20L2 colon; above 100 µM in the assay on LXFL 529 NSCLC; above 100 µM in the assay on M19-MEL melanoma. The TGI in the assay with SNB-78 CNS worked out at 70.1 µM.

As to `CCOC(=O)c1cc2c(nc1N)-c1ncccc1CC2`, the TGI in the assay on DLD-1 colon was above 100 µM; with DMS 114 small cell lung, 33 µM; in the assay on DMS 273 small cell lung, above 100 µM; with KM20L2 colon it was above 100 µM; in the assay with LXFL 529 NSCLC, above 100 µM; in the assay with M19-MEL melanoma, above 100 µM. Further, the TGI with RXF-631 renal and with SNB-78 CNS was above 100 µM throughout.

For `CC(Oc1ccc(OCC2CCCCC2)cc1)C(N)=O` (stereo unspecified), the TGI in the assay with DLD-1 colon, with DMS 114 small cell lung, in the assay with DMS 273 small cell lung, with LXFL 529 NSCLC, in the assay on M19-MEL melanoma and in the assay on SNB-78 CNS was above 100 µM each time. In addition, in the assay with XF 498 CNS, the TGI was above 100 µM.

Turning to `CC(O)C(N=Cc1nc(-c2ccccc2)oc1O)C(=O)O` (stereo unspecified), the TGI in the assay on DLD-1 colon, in the assay with DMS 114 small cell lung, with DMS 273 small cell lung, with KM20L2 colon, with LXFL 529 NSCLC and with M19-MEL melanoma was above 100 µM each time. The TGI in the assay with RXF-631 renal, with SNB-78 CNS and in the assay on XF 498 CNS was above 100 µM throughout.

For the molecule `O=C1CCCC/C1=C1\C(=O)Nc2cc(F)ccc21`, the TGI with DLD-1 colon, in the assay on DMS 114 small cell lung, with DMS 273 small cell lung, in the assay on KM20L2 colon, in the assay with LXFL 529 NSCLC and in the assay on M19-MEL melanoma was above 100 µM each time. Moreover, the TGI in the assay with SNB-78 CNS and in the assay on XF 498 CNS was above 100 µM throughout.

On to `Cc1c(-c2nnc(-c3ccc(Cl)cc3)o2)c(=O)n(-c2ccccc2)n1C`, for which the TGI with DLD-1 colon, with DMS 114 small cell lung, in the assay on DMS 273 small cell lung, with KM20L2 colon, in the assay on LXFL 529 NSCLC and with M19-MEL melanoma was above 100 µM in each case. Also, the TGI in the assay on SNB-78 CNS and in the assay on XF 498 CNS was above 100 µM each time.

Turning to `CC(=O)C1=C(C)Cn2c(=O)c3ccccc3c(=O)n2C1`, the TGI with DLD-1 colon, with DMS 114 small cell lung, in the assay on DMS 273 small cell lung, with KM20L2 colon, with LXFL 529 NSCLC and in the assay on M19-MEL melanoma was above 100 µM in each case. For the same molecule, in the assay with RXF-631 renal, the TGI was above 100 µM.

Turning to `CC1(C)OC(C[C@]2(C#N)C[C@H](CCl)OC(C)(C)O2)C[C@@H](C[C@]2(C#N)C[C@H](CCl)OC(C)(C)O2)O1` (stereo partly specified), the TGI in the assay with DLD-1 colon, with DMS 273 small cell lung, with KM20L2 colon, with LXFL 529 NSCLC, with M19-MEL melanoma and in the assay on SNB-78 CNS was above 100 µM in each case. Besides, in the assay with XF 498 CNS, the TGI is above 100 µM.

As for `CC1(C)CC(=O)C2=C(C1)S/C(=C1/SC3=C(S1)C(=O)CC(C)(C)C3)S2`, the TGI in the assay on DLD-1 colon, with DMS 114 small cell lung, in the assay with DMS 273 small cell lung, with KM20L2 colon, with LXFL 529 NSCLC and with M19-MEL melanoma was above 251 µM in each case. Moreover, the TGI in the assay with SNB-78 CNS and with XF 498 CNS was above 251 µM throughout.
